{"source": "patent US20020137929A1", "about": "“1 - (3-heterocyclylphenyl) isothiourea, -isourea, -guanidine and -amidine herbicidal agents” (Intellectual Property Department, BASF Aktiengesellschaft, priority 1998, published 2002)", "key": {"[1]": {"tested_on": "IPOHE (Morningglory, Ivyleaf)", "experiment": "Preemergence herbicidal evaluation", "type": "in vivo, Ipomoea hederacea", "details": "preemergence, rated 4-5 weeks after treatment, 0-9 scale", "method_in_brief": "(§1)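 Herbicidal effect scored visually, 0-9, at 4 to 5 weeks against a control; compound applied preemergence by aqueous acetone spray to seeded soil at about 0.0156 to 0.500 kg/ha.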"}, "ABUTH (Velvetleaf)": {"tested_on": "ABUTH (Velvetleaf)", "experiment": "Preemergence herbicidal evaluation", "type": "in vivo, Abutilon theophrasti", "details": "preemergence, rated 4-5 weeks after treatment, 0-9 scale", "method_in_brief": "as §1"}, "[2]": {"tested_on": "SAGPY (Arrowhead (Pygmaea))", "experiment": "Postemergence weed control under flooded paddy conditions", "type": "in vivo, Sagittaria pygmaea", "details": "postemergence weeds, rated 3 to 4 weeks after treatment", "method_in_brief": "(§2)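 Injury ratings (0–9 scale covering stand, vigor, malformation, size, chlorosis and overall appearance versus control) were made three to four weeks after treatment. Test material, about 0.0313 to 0.500 kg/ha a.i. in 50/50 v/v aqueous/acetone, was added to flood water 1.5 to 3 cm deep over 3 to 5 cm weeds and 1.5 to 2.5 leaf rice.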"}, "[3]": {"tested_on": "IPOHE (Morningglory, Ivyleaf)", "experiment": "Postemergence herbicidal evaluation", "type": "in vivo, Ipomoea hederacea", "details": "postemergence", "method_in_brief": "(§3)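 Two-week seedlings sprayed postemergence at 40 psi; formulation: 1:1 acetone/water, 0.5% TWEEN 20; application ≈0.0156–0.500 kg/ha. Greenhouse grow-out, then 0–9 visual scoring at 4–5 weeks.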"}, "MOOVA (Monochoria)": {"tested_on": "MOOVA (Monochoria)", "experiment": "Preemergence weed control under flooded paddy conditions", "type": "in vivo, Monochoria vaginalis", "details": "rated 3-4 weeks after treatment", "method_in_brief": "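Herbicidal effect is scored visually on a 0-9 scale against an untreated control, three to four weeks after compounds are pipetted into the flood water (1.5 to 3 cm deep) over seeds planted in silt loam at 0.5 cm depth. Rates: about 0.0313 to 0.500 kg/ha.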"}, "GALAP (Galium)": {"tested_on": "GALAP (Galium)", "experiment": "Postemergence herbicidal evaluation", "type": "in vivo, Galium aparine", "details": "postemergence", "method_in_brief": "as §3"}, "ZEAMX (Corn, Field)": {"tested_on": "ZEAMX (Corn, Field)", "experiment": "Preemergence herbicidal evaluation", "type": "in vivo, Zea mays", "details": "preemergence, rated 4-5 weeks after treatment, 0-9 scale", "method_in_brief": "as §1"}, "CYPIR (Rice Flatsedge)": {"tested_on": "CYPIR (Rice Flatsedge)", "experiment": "Preemergence weed control under flooded paddy conditions", "type": "in vivo, Cyperus iria", "details": "rated 3-4 weeks after treatment", "method_in_brief": "(§4)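 Visual injury scored 0-9 against control three to four weeks post-treatment, greenhouse-grown. Application: acetone/water (50/50) solutions dosed directly into flood water (1.5-3 cm over silt loam, planted top 0.5 cm), roughly 0.0313 to 0.500 kg/ha active ingredient.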"}, "SETVI (Foxtail, Green) [4]": {"tested_on": "SETVI (Foxtail, Green)", "experiment": "Preemergence herbicidal evaluation", "type": "in vivo, Setaria viridis", "details": "preemergence, rated 4-5 weeks after treatment, 0-9 scale", "method_in_brief": "as §1"}, "SETVI (Foxtail, Green) [5]": {"tested_on": "SETVI (Foxtail, Green)", "experiment": "Postemergence herbicidal evaluation", "type": "in vivo, Setaria viridis", "details": "postemergence", "method_in_brief": "as §3"}, "ECHCG (Barnyardgrass)": {"tested_on": "ECHCG (Barnyardgrass)", "experiment": "Preemergence herbicidal evaluation", "type": "in vivo, Echinochloa crus-galli", "details": "preemergence, rated 4-5 weeks after treatment, 0-9 scale", "method_in_brief": "as §1"}, "[6]": {"tested_on": "ECHORC (Watergrass (Calif.))", "experiment": "Postemergence weed control under flooded paddy conditions", "type": "in vivo, Echinochloa oryzoides", "details": "postemergence weeds, rated 3 to 4 weeks after treatment", "method_in_brief": "as §2"}, "[7]": {"tested_on": "TRZAWR (Wheat, Winter, cv Riband)", "experiment": "Postemergence herbicidal evaluation", "type": "in vivo, Triticum aestivum", "details": "postemergence", "method_in_brief": "as §3"}, "[8]": {"tested_on": "ECHORC (Watergrass (Calif.))", "experiment": "Preemergence weed control under flooded paddy conditions", "type": "in vivo, Echinochloa oryzoides", "details": "rated 3-4 weeks after treatment", "method_in_brief": "as §4"}}}
{"molecule": "CCOC(=O)CN1C(=O)C(CC(=O)NS(=O)(=O)CC)SC1=Nc1cc(-n2c(=O)cc(C(F)(F)F)n(C)c2=O)c(F)cc1Cl", "note": "(stereo not shown) [Compound 103, Ethyl 2-{{2-chloro-5-[3,6-dihydro-3-methyl-2,6-dioxo-4-(trifluoromethyl)-1(2H)-pyrimidinyl]-4-fluorophenyl}imino}-5-{[(ethylsulfonyl)carbamoyl]-methyl}-4-oxo-3-thiazolidineacetate]", "values": [{"measurement": "IPOHE rating", "setting": "[1]; 0.0313 kg/ha", "value": 0.0}, {"measurement": "IPOHE rating", "setting": "[1]; 0.0625 kg/ha", "value": 0.0}, {"measurement": "IPOHE rating", "setting": "[1]; 0.1250 kg/ha", "value": 3.0}, {"measurement": "IPOHE rating", "setting": "[1]; 0.2500 kg/ha", "value": 5.0}, {"measurement": "IPOHE rating", "setting": "[1]; 0.5000 kg/ha", "value": 9.0}, {"measurement": "ABUTH rating", "setting": "ABUTH (Velvetleaf); 0.0313 kg/ha", "value": 9.0}, {"measurement": "ABUTH rating", "setting": "ABUTH (Velvetleaf); 0.0625 kg/ha", "value": 9.0}, {"measurement": "ABUTH rating", "setting": "ABUTH (Velvetleaf); 0.1250 kg/ha", "value": 9.0}, {"measurement": "ABUTH rating", "setting": "ABUTH (Velvetleaf); 0.2500 kg/ha", "value": 9.0}, {"measurement": "ABUTH rating", "setting": "ABUTH (Velvetleaf); 0.5000 kg/ha", "value": 9.0}, {"measurement": "Herbicidal rating SAGPY", "setting": "[2]; Rate 0.0313 kg/ha", "value": 7.0}, {"measurement": "Herbicidal rating SAGPY", "setting": "[2]; Rate 0.0625 kg/ha", "value": 9.0}, {"measurement": "Herbicidal rating SAGPY", "setting": "[2]; Rate 0.1250 kg/ha", "value": 9.0}, {"measurement": "Herbicidal rating SAGPY", "setting": "[2]; Rate 0.2500 kg/ha", "value": 9.0}, {"measurement": "herbicidal rating IPOHE", "setting": "[3]; rate 0.0156 kg/ha", "value": 9.0}, {"measurement": "herbicidal rating IPOHE", "setting": "[3]; rate 0.0313 kg/ha", "value": 9.0}, {"measurement": "herbicidal rating IPOHE", "setting": "[3]; rate 0.0625 kg/ha", "value": 9.0}, {"measurement": "herbicidal rating IPOHE", "setting": "[3]; rate 0.1250 kg/ha", "value": 9.0}, {"measurement": "MOOVA herbicidal effect rating", "setting": "MOOVA (Monochoria); 0.0313 kg/ha", "value": 5.0}, {"measurement": "MOOVA herbicidal effect rating", "setting": "MOOVA (Monochoria); 0.0625 kg/ha", "value": 7.0}, {"measurement": "MOOVA herbicidal effect rating", "setting": "MOOVA (Monochoria); 0.1250 kg/ha", "value": 9.0}, {"measurement": "MOOVA herbicidal effect rating", "setting": "MOOVA (Monochoria); 0.2500 kg/ha", "value": 9.0}, {"measurement": "herbicidal rating GALAP", "setting": "GALAP (Galium); rate 0.0156 kg/ha", "value": 0.0}, {"measurement": "herbicidal rating GALAP", "setting": "GALAP (Galium); rate 0.0313 kg/ha", "value": 3.0}, {"measurement": "herbicidal rating GALAP", "setting": "GALAP (Galium); rate 0.0625 kg/ha", "value": 5.0}, {"measurement": "herbicidal rating GALAP", "setting": "GALAP (Galium); rate 0.1250 kg/ha", "value": 7.0}, {"measurement": "ZEAMX rating", "setting": "ZEAMX (Corn, Field); 0.0313 kg/ha", "value": 0.0}, {"measurement": "ZEAMX rating", "setting": "ZEAMX (Corn, Field); 0.0625 kg/ha", "value": 0.0}, {"measurement": "ZEAMX rating", "setting": "ZEAMX (Corn, Field); 0.1250 kg/ha", "value": 0.0}, {"measurement": "ZEAMX rating", "setting": "ZEAMX (Corn, Field); 0.2500 kg/ha", "value": 0.0}, {"measurement": "ZEAMX rating", "setting": "ZEAMX (Corn, Field); 0.5000 kg/ha", "value": 1.0}, {"measurement": "CYPIR herbicidal effect rating", "setting": "CYPIR (Rice Flatsedge); 0.0313 kg/ha", "value": 4.0}, {"measurement": "CYPIR herbicidal effect rating", "setting": "CYPIR (Rice Flatsedge); 0.0625 kg/ha", "value": 6.0}, {"measurement": "CYPIR herbicidal effect rating", "setting": "CYPIR (Rice Flatsedge); 0.1250 kg/ha", "value": 9.0}, {"measurement": "CYPIR herbicidal effect rating", "setting": "CYPIR (Rice Flatsedge); 0.2500 kg/ha", "value": 9.0}, {"measurement": "SETVI rating", "setting": "SETVI (Foxtail, Green) [4]; 0.0313 kg/ha", "value": 0.0}, {"measurement": "SETVI rating", "setting": "SETVI (Foxtail, Green) [4]; 0.0625 kg/ha", "value": 0.0}, {"measurement": "SETVI rating", "setting": "SETVI (Foxtail, Green) [4]; 0.1250 kg/ha", "value": 3.0}, {"measurement": "SETVI rating", "setting": "SETVI (Foxtail, Green) [4]; 0.2500 kg/ha", "value": 3.0}, {"measurement": "SETVI rating", "setting": "SETVI (Foxtail, Green) [4]; 0.5000 kg/ha", "value": 9.0}, {"measurement": "herbicidal rating SETVI", "setting": "SETVI (Foxtail, Green) [5]; rate 0.0156 kg/ha", "value": 4.0}, {"measurement": "herbicidal rating SETVI", "setting": "SETVI (Foxtail, Green) [5]; rate 0.0313 kg/ha", "value": 5.0}, {"measurement": "herbicidal rating SETVI", "setting": "SETVI (Foxtail, Green) [5]; rate 0.0625 kg/ha", "value": 9.0}, {"measurement": "herbicidal rating SETVI", "setting": "SETVI (Foxtail, Green) [5]; rate 0.1250 kg/ha", "value": 9.0}, {"measurement": "ECHCG rating", "setting": "ECHCG (Barnyardgrass); 0.0313 kg/ha", "value": 0.0}, {"measurement": "ECHCG rating", "setting": "ECHCG (Barnyardgrass); 0.0625 kg/ha", "value": 0.0}, {"measurement": "ECHCG rating", "setting": "ECHCG (Barnyardgrass); 0.1250 kg/ha", "value": 0.0}, {"measurement": "ECHCG rating", "setting": "ECHCG (Barnyardgrass); 0.2500 kg/ha", "value": 0.0}, {"measurement": "ECHCG rating", "setting": "ECHCG (Barnyardgrass); 0.5000 kg/ha", "value": 2.0}, {"measurement": "Herbicidal rating ECHORC", "setting": "[6]; Rate 0.0313 kg/ha", "value": 4.0}, {"measurement": "Herbicidal rating ECHORC", "setting": "[6]; Rate 0.0625 kg/ha", "value": 4.0}, {"measurement": "Herbicidal rating ECHORC", "setting": "[6]; Rate 0.1250 kg/ha", "value": 5.0}, {"measurement": "Herbicidal rating ECHORC", "setting": "[6]; Rate 0.2500 kg/ha", "value": 6.0}, {"measurement": "herbicidal rating TRZAWR", "setting": "[7]; rate 0.0156 kg/ha", "value": 3.5}, {"measurement": "herbicidal rating TRZAWR", "setting": "[7]; rate 0.0313 kg/ha", "value": 6.0}, {"measurement": "herbicidal rating TRZAWR", "setting": "[7]; rate 0.0625 kg/ha", "value": 7.5}, {"measurement": "herbicidal rating TRZAWR", "setting": "[7]; rate 0.1250 kg/ha", "value": 7.5}, {"measurement": "ECHORC herbicidal effect rating", "setting": "[8]; 0.0313 kg/ha", "value": 4.0}, {"measurement": "ECHORC herbicidal effect rating", "setting": "[8]; 0.0625 kg/ha", "value": 4.0}, {"measurement": "ECHORC herbicidal effect rating", "setting": "[8]; 0.1250 kg/ha", "value": 5.0}, {"measurement": "ECHORC herbicidal effect rating", "setting": "[8]; 0.2500 kg/ha", "value": 6.0}]}
